Data from ChEMBL document CHEMBL1201861, “Genomics of Drug Sensitity in Cancer screening data, Wellcome Trust Sanger Institute”.

Legend:
Assay in all cases: cells
COR-L88 = format: functional, cell-based; conditions: Homo sapiens;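 further: growth inhibition of COR-L88 cells, read out with a cell viability assay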
Description: SANGER: Inhibition of human COR-L88 cell growth in a cell viability assay.

DU-145 = format: functional, cell-based, Homo sapiens; conditions: Homo sapiens, DU-145
Description: SANGER: Inhibition of human DU-145 cell growth in a cell viability assay.

G-402 = format: functional, cell-based, Homo sapiens; conditions: Homo sapiens, G-402
Description: SANGER: Inhibition of human G-402 cell growth in a cell viability assay.

GAMG = format: functional, cell-based, Homo sapiens; conditions: Homo sapiens, GAMG;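 further: cell growth inhibition measured by a viability assay in the GAMG human cell line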
Description: SANGER: Inhibition of human GAMG cell growth in a cell viability assay.

HCC1395 = format: functional, cell-based, Homo sapiens; conditions: Homo sapiens, HCC1395;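 further: growth inhibition of HCC1395 cells, read out by a cell viability assay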
Description: SANGER: Inhibition of human HCC1395 cell growth in a cell viability assay.

HCC2218 = format: functional, cell-based; conditions: Homo sapiens;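 further: cell viability assay read-out, with IC50 given as the concentration that inhibits growth of the cell line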
Description: SANGER: Inhibition of human HCC2218 cell growth in a cell viability assay.

HCE-T = format: functional, cell-based, Homo sapiens; conditions: Homo sapiens, HCE-T;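 further: cell viability assay read-out, reporting inhibition of HCE-T cell growth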
Description: SANGER: Inhibition of human HCE-T cell growth in a cell viability assay.

HD-MY-Z = format: functional, cell-based, Homo sapiens; conditions: Homo sapiens, HD-MY-Z;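 further: growth inhibition of HD-MY-Z cells, read out with a cell viability assay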
Description: SANGER: Inhibition of human HD-MY-Z cell growth in a cell viability assay.

HDLM-2 = format: functional, cell-based; conditions: Homo sapiens;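 further: cell viability assay measuring suppression of HDLM-2 proliferation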
Description: SANGER: Inhibition of human HDLM-2 cell growth in a cell viability assay.

HEL = format: functional, cell-based, Homo sapiens; conditions: Homo sapiens, HEL;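 further: growth inhibition of HEL cells, read out with a cell viability assay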
Description: SANGER: Inhibition of human HEL cell growth in a cell viability assay.

HSC-2 = format: functional, cell-based, Homo sapiens; conditions: Homo sapiens, HSC-2;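 further: growth inhibition of human HSC-2 cells, read out by a cell viability assay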
Description: SANGER: Inhibition of human HSC-2 cell growth in a cell viability assay.

HT-1080 = format: functional, cell-based, Homo sapiens; conditions: Homo sapiens, HT-1080
Description: SANGER: Inhibition of human HT-1080 cell growth in a cell viability assay.

IA-LM = format: functional, cell-based, Homo sapiens; conditions: Homo sapiens, IA-LM;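 further: cell viability assay measuring growth inhibition of human IA-LM cells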
Description: SANGER: Inhibition of human IA-LM cell growth in a cell viability assay.

K5 = format: functional, cell-based, Homo sapiens; conditions: Homo sapiens, K5
Description: SANGER: Inhibition of human K5 cell growth in a cell viability assay.

LS-1034 = format: functional, cell-based, Homo sapiens; conditions: Homo sapiens, LS-1034
Description: SANGER: Inhibition of human LS-1034 cell growth in a cell viability assay.

MDA-MB-175-VII = format: functional, cell-based, Homo sapiens; conditions: Homo sapiens, MDA-MB-175-VII
MOLT-16 = format: functional, cell-based; conditions: Homo sapiens;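 further: growth inhibition of human MOLT-16 cells, read out with a cell viability assay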
Description: SANGER: Inhibition of human MOLT-16 cell growth in a cell viability assay.

MOLT-4 = format: functional, cell-based; conditions: Homo sapiens;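 further: growth inhibition of MOLT-4 cells, determined with a cell viability readout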
Description: SANGER: Inhibition of human MOLT-4 cell growth in a cell viability assay.

Mo = format: functional, cell-based; conditions: Homo sapiens
Description: SANGER: Inhibition of human Mo-T cell growth in a cell viability assay.

NCI-H1155 = format: functional, cell-based; conditions: Homo sapiens;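 further: cell growth inhibition measured by a viability assay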
Description: SANGER: Inhibition of human NCI-H1155 cell growth in a cell viability assay.

NCI-H1563 = format: functional, cell-based, Homo sapiens; conditions: Homo sapiens, NCI-H1563;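 further: growth inhibition of human NCI-H1563 cells, read out with a cell viability assay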
Description: SANGER: Inhibition of human NCI-H1563 cell growth in a cell viability assay.

NCI-H1755 = format: functional, cell-based, Homo sapiens; conditions: Homo sapiens, NCI-H1755;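 further: cell viability readout used to measure growth inhibition of NCI-H1755 cells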
Description: SANGER: Inhibition of human NCI-H1755 cell growth in a cell viability assay.

NCI-H28 = format: functional, cell-based, Homo sapiens; conditions: Homo sapiens, NCI-H28;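 further: growth inhibition of human NCI-H28 cells, read out as cell viability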
Description: SANGER: Inhibition of human NCI-H28 cell growth in a cell viability assay.

NCI-H720 = format: functional, cell-based; conditions: Homo sapiens;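 further: growth inhibition of human NCI-H720 cells determined by a cell viability assay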
Description: SANGER: Inhibition of human NCI-H720 cell growth in a cell viability assay.

OVCAR-5 = format: functional, cell-based, Homo sapiens; conditions: Homo sapiens, OVCAR-5;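 further: growth inhibition of human OVCAR-5 cells, read out with a cell viability assay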
Description: SANGER: Inhibition of human OVCAR-5 cell growth in a cell viability assay.

PA-1 = format: functional, cell-based, Homo sapiens; conditions: Homo sapiens, PA-1;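 further: IC50 for suppression of PA-1 cell proliferation, determined with a cell viability read-out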
Description: SANGER: Inhibition of human PA-1 cell growth in a cell viability assay.

PC-3 = format: functional, cell-based, Homo sapiens; conditions: Homo sapiens, PC-3;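 further: cell viability assay measuring growth inhibition of PC-3 cells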
Description: SANGER: Inhibition of human PC-3 cell growth in a cell viability assay.

RERF-LC-MS = format: functional, cell-based, Homo sapiens; conditions: Homo sapiens, RERF-LC-MS;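 further: growth inhibition of human RERF-LC-MS cells, read out by a cell viability assay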
Description: SANGER: Inhibition of human RERF-LC-MS cell growth in a cell viability assay.

RPMI-2650 = format: functional, cell-based, Homo sapiens; conditions: Homo sapiens, RPMI-2650
Description: SANGER: Inhibition of human RPMI-2650 cell growth in a cell viability assay.

RPMI-7951 = format: functional, cell-based, Homo sapiens; conditions: Homo sapiens, RPMI-7951
Description: SANGER: Inhibition of human RPMI-7951 cell growth in a cell viability assay.

RPMI-8226 = format: functional, cell-based; conditions: Homo sapiens
Description: SANGER: Inhibition of human RPMI-8226 cell growth in a cell viability assay.

RVH-421 = format: functional, cell-based, Homo sapiens; conditions: Homo sapiens, RVH-421
Description: SANGER: Inhibition of human RVH-421 cell growth in a cell viability assay.

SBC-5 = format: functional, cell-based, Homo sapiens; conditions: Homo sapiens, SBC-5;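 further: cell viability assay read-out, IC50 is the concentration that inhibits growth of the cells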
Description: SANGER: Inhibition of human SBC-5 cell growth in a cell viability assay.

SCC-4 = format: functional, cell-based, Homo sapiens; conditions: Homo sapiens, SCC-4;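 further: growth inhibition of human SCC-4 cells, read out as cell viability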
Description: SANGER: Inhibition of human SCC-4 cell growth in a cell viability assay.

SCC-9 = format: functional, cell-based, Homo sapiens; conditions: Homo sapiens, SCC-9;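 further: Read-out is a cell viability assay, with values giving inhibition of cell growth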
SF-126 = format: functional, cell-based, Homo sapiens; conditions: Homo sapiens, SF-126;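 further: growth inhibition of human SF126 cells, read out with a cell viability assay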
Description: SANGER: Inhibition of human SF126 cell growth in a cell viability assay.

SK-LMS-1 = format: functional, cell-based, Homo sapiens; conditions: Homo sapiens, SK-LMS-1;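 further: growth inhibition of human SK-LMS-1 cells, read out with a cell viability assay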
Description: SANGER: Inhibition of human SK-LMS-1 cell growth in a cell viability assay.

SK-MEL-1 = format: functional, cell-based; conditions: Homo sapiens;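 further: growth inhibition of human SK-MEL-1 cells, read out by a cell viability assay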
Description: SANGER: Inhibition of human SK-MEL-1 cell growth in a cell viability assay.

SNU-449 = format: functional, cell-based, Homo sapiens; conditions: Homo sapiens, SNU-449
Description: SANGER: Inhibition of human SNU-449 cell growth in a cell viability assay.

SW 962 = format: functional, cell-based, Homo sapiens; conditions: Homo sapiens, SW 962;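 further: growth inhibition of human SW962 cells, read out by a cell viability assay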
Description: SANGER: Inhibition of human SW962 cell growth in a cell viability assay.

A204 = format: functional, cell-based, Homo sapiens; conditions: Homo sapiens, A204;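 further: growth inhibition of human A204 cells, read out with a cell viability assay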
Description: SANGER: Inhibition of human A204 cell growth in a cell viability assay.

A-427 = format: functional, cell-based, Homo sapiens; conditions: Homo sapiens, A-427;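 further: growth inhibition of human A-427 cells, read out by a cell viability assay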
Description: SANGER: Inhibition of human A427 cell growth in a cell viability assay.

ABC-1 = format: functional, cell-based, Homo sapiens; conditions: Homo sapiens, ABC-1;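 further: growth inhibition of human ABC-1 cells, read out by a cell viability assay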
Description: SANGER: Inhibition of human ABC-1 cell growth in a cell viability assay.

BB65-RCC = format: functional, cell-based, Homo sapiens; conditions: Homo sapiens, BB65-RCC;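 further: growth inhibition of the cell line, measured with a cell viability assay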
Description: SANGER: Inhibition of human BB65-RCC cell growth in a cell viability assay.

BEN = format: functional, cell-based, Homo sapiens; conditions: Homo sapiens, BEN;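 further: growth inhibition of the BEN cell line, read out with a cell viability assay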
Description: SANGER: Inhibition of human BEN cell growth in a cell viability assay.

Becker = format: functional, cell-based, Homo sapiens; conditions: Homo sapiens, Becker;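 further: growth inhibition of Becker cells, read out with a cell viability assay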
Description: SANGER: Inhibition of human Becker cell growth in a cell viability assay.

C8166 = format: functional, cell-based; conditions: Homo sapiens;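 further: growth inhibition of human C8166 cells measured by a cell viability assay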
Description: SANGER: Inhibition of human C8166 cell growth in a cell viability assay.

TE-5 = format: functional, cell-based, Homo sapiens; conditions: Homo sapiens, TE-5;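 further: inhibition of cell growth, read out by a cell viability assay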
Description: SANGER: Inhibition of human TE-5 cell growth in a cell viability assay.

UO-31 = format: functional, cell-based; conditions: Homo sapiens;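 further: cell viability assay measuring inhibition of cell growth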
Description: SANGER: Inhibition of human U031 cell growth in a cell viability assay.

U-251 = format: functional, cell-based, Homo sapiens; conditions: Homo sapiens, U-251;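 further: growth inhibition of human U-251 cells, read out through a cell viability assay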
Description: SANGER: Inhibition of human U251 cell growth in a cell viability assay.

CHL-1 = format: functional, cell-based, Homo sapiens; conditions: Homo sapiens, CHL-1;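 further: cell growth inhibition, read out with a cell viability assay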
Description: SANGER: Inhibition of human CHL-1 cell growth in a cell viability assay.

COLO-684 = format: functional, cell-based; conditions: Homo sapiens
Description: SANGER: Inhibition of human COLO-684 cell growth in a cell viability assay.

With O=C(NOCC1CC1)c1ccc(F)c(F)c1Nc1ccc(I)cc1Cl [CI-1040] the IC50 (COR-L88) was > 10 µM, the IC50 (DU-145) was > 10 µM and the IC50 (G-402) was > 10 µM. For the same molecule, the IC50 (GAMG) was 4.02 µM, the IC50 (HCC1395) was > 10 µM and the IC50 (HCC2218) was 2.65 µM. For the same molecule, the IC50 (HCE-T) was 2.83 µM, the IC50 (HD-MY-Z) was 1.57 µM and the IC50 (HDLM-2) was > 10 µM. The IC50 (HEL) was > 10 µM, the IC50 (HSC-2) was > 10 µM and the IC50 (HT-1080) was 3.02 µM. The IC50 (IA-LM) was > 10 µM, the IC50 (K5) was 0.431 µM and the IC50 (LS-1034) was > 10 µM. For the same molecule, the IC50 (MDA-MB-175-VII) was > 10 µM, the IC50 (MOLT-16) was > 10 µM and the IC50 (MOLT-4) was > 10 µM. The IC50 (Mo) was > 10 µM, the IC50 (NCI-H1155) was 5.4 µM and the IC50 (NCI-H1563) was > 10 µM. The IC50 (NCI-H1755) was > 10 µM, the IC50 (NCI-H28) was > 10 µM and the IC50 (NCI-H720) was > 10 µM. For the same molecule, the IC50 (OVCAR-5) was 1.78 µM, the IC50 (PA-1) was 5.64 µM and the IC50 (PC-3) was > 10 µM. For the same molecule, the IC50 (RERF-LC-MS) was 5.69 µM, the IC50 (RPMI-2650) was > 10 µM and the IC50 (RPMI-7951) was 4.26 µM. For the same molecule, the IC50 (RPMI-8226) was > 10 µM, the IC50 (RVH-421) was 0.972 µM and the IC50 (SBC-5) was > 10 µM. For the same molecule, the IC50 (SCC-4) was > 10 µM, the IC50 (SCC-9) was > 10 µM and the IC50 (SF-126) was > 10 µM. For the same molecule, the IC50 (SK-LMS-1) was > 10 µM, the IC50 (SK-MEL-1) was 1.23 µM and the IC50 (SNU-449) was > 10 µM. The IC50 (SW 962) was > 10 µM, the IC50 (A204) was > 10 µM and the IC50 (A-427) was 3.6 µM. For the same molecule, the IC50 (ABC-1) was > 10 µM, the IC50 (BB65-RCC) was 2.41 µM and the IC50 (BEN) was > 10 µM. For the same molecule, the IC50 (Becker) was > 10 µM, the IC50 (C8166) was > 10 µM and the IC50 (TE-5) was 8.42 µM. The IC50 (UO-31) was > 10 µM, the IC50 (U-251) was > 10 µM and the IC50 (CHL-1) was 2.81 µM. For the same molecule, the IC50 (COLO-684) was > 10 µM.

CN(c1ncccc1CNc1nc(Nc2ccc3c(c2)CC(=O)N3)ncc1C(F)(F)F)S(C)(=O)=O [PF-00562271] was tested, and the IC50 (COR-L88) was > 2.56 µM, the IC50 (DU-145) was 2.49 µM and the IC50 (G-402) was > 2.56 µM. For the same molecule, the IC50 (GAMG) was > 2.56 µM, the IC50 (HCC1395) was > 2.56 µM and the IC50 (HCC2218) was > 2.56 µM. For the same molecule, the IC50 (HCE-T) was > 2.56 µM, the IC50 (HD-MY-Z) was > 2.56 µM and the IC50 (HDLM-2) was > 2.56 µM. The IC50 (HEL) was > 2.56 µM, the IC50 (HSC-2) was 1.54 µM and the IC50 (HT-1080) was > 2.56 µM. The IC50 (IA-LM) was > 2.56 µM, the IC50 (K5) was > 2.56 µM and the IC50 (LS-1034) was > 2.56 µM. The IC50 (MDA-MB-175-VII) was > 2.56 µM, the IC50 (MOLT-16) was > 2.56 µM and the IC50 (MOLT-4) was > 2.56 µM. The IC50 (Mo) was > 2.56 µM, the IC50 (NCI-H1155) was > 2.56 µM and the IC50 (NCI-H1563) was > 2.56 µM. For the same molecule, the IC50 (NCI-H1755) was > 2.56 µM, the IC50 (NCI-H28) was > 2.56 µM and the IC50 (NCI-H720) was > 2.56 µM. For the same molecule, the IC50 (OVCAR-5) was > 2.56 µM, the IC50 (PA-1) was > 2.56 µM and the IC50 (PC-3) was > 2.56 µM. For the same molecule, the IC50 (RERF-LC-MS) was > 2.56 µM, the IC50 (RPMI-2650) was > 2.56 µM and the IC50 (RPMI-7951) was > 2.56 µM. The IC50 (RPMI-8226) was > 2.56 µM, the IC50 (RVH-421) was > 2.56 µM and the IC50 (SBC-5) was > 2.56 µM. The IC50 (SCC-4) was > 2.56 µM, the IC50 (SCC-9) was > 2.56 µM and the IC50 (SF-126) was > 2.56 µM. For the same molecule, the IC50 (SK-LMS-1) was > 2.56 µM, the IC50 (SK-MEL-1) was > 2.56 µM and the IC50 (SNU-449) was > 2.56 µM. The IC50 (SW 962) was > 2.56 µM, the IC50 (A204) was > 2.56 µM and the IC50 (A-427) was > 2.56 µM. For the same molecule, the IC50 (ABC-1) was 2.25 µM, the IC50 (BB65-RCC) was > 2.56 µM and the IC50 (BEN) was > 2.56 µM. For the same molecule, the IC50 (Becker) was > 2.56 µM, the IC50 (C8166) was > 2.56 µM and the IC50 (TE-5) was > 2.56 µM. The IC50 (UO-31) was > 2.56 µM, the IC50 (U-251) was 1.74 µM and the IC50 (CHL-1) was > 2.56 µM. The IC50 (COLO-684) was > 2.56 µM.

With Cc1ccc(Nc2nccc(N(C)c3ccc4c(C)n(C)nc4c3)n2)cc1S(N)(=O)=O [PAZOPANIB] the IC50 (COR-L88) was > 8 µM, the IC50 (DU-145) was > 8 µM and the IC50 (G-402) was 0.532 µM. For the same molecule, the IC50 (GAMG) was 6.18 µM, the IC50 (HCC1395) was 2.58 µM and the IC50 (HCC2218) was > 8 µM. The IC50 (HCE-T) was > 8 µM, the IC50 (HD-MY-Z) was > 8 µM and the IC50 (HDLM-2) was > 8 µM. For the same molecule, the IC50 (HEL) was > 8 µM, the IC50 (HSC-2) was > 8 µM and the IC50 (HT-1080) was > 8 µM. For the same molecule, the IC50 (IA-LM) was 7.93 µM, the IC50 (K5) was > 8 µM and the IC50 (LS-1034) was > 8 µM. For the same molecule, the IC50 (MDA-MB-175-VII) was > 8 µM, the IC50 (MOLT-16) was > 8 µM and the IC50 (MOLT-4) was > 8 µM. For the same molecule, the IC50 (Mo) was > 8 µM, the IC50 (NCI-H1155) was > 8 µM and the IC50 (NCI-H1563) was > 8 µM. The IC50 (NCI-H1755) was > 8 µM, the IC50 (NCI-H28) was > 8 µM and the IC50 (NCI-H720) was > 8 µM. For the same molecule, the IC50 (OVCAR-5) was > 8 µM, the IC50 (PA-1) was > 8 µM and the IC50 (PC-3) was > 8 µM. For the same molecule, the IC50 (RERF-LC-MS) was > 8 µM, the IC50 (RPMI-2650) was > 8 µM and the IC50 (RPMI-7951) was > 8 µM. The IC50 (RPMI-8226) was > 8 µM, the IC50 (RVH-421) was > 8 µM and the IC50 (SBC-5) was > 8 µM. For the same molecule, the IC50 (SCC-4) was > 8 µM, the IC50 (SCC-9) was > 8 µM and the IC50 (SF-126) was 2.47 µM. The IC50 (SK-LMS-1) was > 8 µM, the IC50 (SK-MEL-1) was > 8 µM and the IC50 (SNU-449) was > 8 µM. For the same molecule, the IC50 (SW 962) was > 8 µM, the IC50 (A204) was 0.109 µM and the IC50 (A-427) was 1.98 µM. For the same molecule, the IC50 (ABC-1) was > 8 µM, the IC50 (BB65-RCC) was > 8 µM and the IC50 (BEN) was > 8 µM. For the same molecule, the IC50 (Becker) was > 8 µM, the IC50 (C8166) was > 8 µM and the IC50 (TE-5) was > 8 µM. The IC50 (UO-31) was > 8 µM, the IC50 (U-251) was > 8 µM and the IC50 (CHL-1) was > 8 µM. The IC50 (COLO-684) was > 8 µM.
